Paper PMC5512185 (International Journal for Parasitology: Drugs and Drug …, 2017)

Tests used:
Human HepG2 = experiment: Cytotoxicity on HepG2 cells; format: cell-based; conditions: for CC50: read-out: CC50 Human HepG2, CC50 ± SD, 48 h; for SIh Selectivity Index (human HepG2): CC50 HepG2 / EC50 amastigotes
Murine Splenocytes = experiment: Cytotoxicity on uninfected ex vivo explants; format: cell-based, mouse; conditions: for SIS Selectivity Index (mouse splenocytes): CC50 non-infected mouse splenocytes / EC50 amastigotes; for CC50: read-out: CC50 Murine Splenocytes, CC50 ± SD, uninfected splenocytes, 48 h
Leishmania tubulin = Leishmania tubulin (Leishmania infantum, UniProt A0A381MCS3+A4HTR0); experiment: Tubulin polymerization assay; format: biochemical, L. infantum
Sequence of Leishmania tubulin (A4HTR0 1-443): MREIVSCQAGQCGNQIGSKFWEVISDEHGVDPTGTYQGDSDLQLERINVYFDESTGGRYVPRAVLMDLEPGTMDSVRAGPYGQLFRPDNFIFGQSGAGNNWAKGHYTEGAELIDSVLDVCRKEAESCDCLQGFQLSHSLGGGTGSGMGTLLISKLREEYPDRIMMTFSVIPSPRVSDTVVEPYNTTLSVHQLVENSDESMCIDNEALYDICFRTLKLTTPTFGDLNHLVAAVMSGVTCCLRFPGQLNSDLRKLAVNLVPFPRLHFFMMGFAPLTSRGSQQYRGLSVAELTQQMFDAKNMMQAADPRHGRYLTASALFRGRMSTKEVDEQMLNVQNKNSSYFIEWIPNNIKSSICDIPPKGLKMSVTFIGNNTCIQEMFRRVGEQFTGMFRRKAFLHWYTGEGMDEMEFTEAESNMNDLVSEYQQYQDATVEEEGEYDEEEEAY
Sequence of Leishmania tubulin (A0A381MCS3 1-451): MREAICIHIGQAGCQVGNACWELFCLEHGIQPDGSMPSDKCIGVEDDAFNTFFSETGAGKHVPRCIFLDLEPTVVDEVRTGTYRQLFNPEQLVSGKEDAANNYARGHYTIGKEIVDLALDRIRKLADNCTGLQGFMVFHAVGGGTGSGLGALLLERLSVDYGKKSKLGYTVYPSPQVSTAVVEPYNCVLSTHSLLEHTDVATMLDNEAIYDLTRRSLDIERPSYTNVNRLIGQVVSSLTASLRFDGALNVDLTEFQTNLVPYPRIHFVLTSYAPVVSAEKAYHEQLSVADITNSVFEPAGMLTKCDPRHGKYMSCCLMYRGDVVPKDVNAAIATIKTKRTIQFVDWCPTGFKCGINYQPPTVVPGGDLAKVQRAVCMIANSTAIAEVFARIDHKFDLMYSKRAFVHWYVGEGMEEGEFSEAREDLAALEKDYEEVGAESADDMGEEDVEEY

[1] = tested on: L. infantum promastigotes; experiment: Promastigote in vitro assay; format: cell-based; conditions: Leishmania infantum, read-out: EC50 L. infantum promastigotes
[2] = Cytotoxicity on HepG2 cells; format: cell-based, human; conditions: human, HepG2 cells (ATCC HB-8065)
[3] = Cytotoxicity on uninfected ex vivo explants; format: cell-based, mouse; conditions: mouse, uninfected ex vivo splenic explants (murine splenocytes)

Compound	CC50 (Human HepG2) [µM]	SIS Selectivity Index (mouse splenocytes) (Murine Splenocytes)	CC50 (Murine Splenocytes) [µM]	IC50 Leishmania tubulin polymerization inhibition (Leishmania tubulin; IC50 ± SD, 1.2 mg/mL tubulin, 37 °C)	EC50 [1] [µM]	SIh Selectivity Index (human HepG2) (Human HepG2)	CC50 at 48 h [2] [µM]	CC50 at 48 h [3] [µM]	CC50 at 48 h ([3]; BALB/c) [µM]	Inhibition of tubulin polymerization (Leishmania tubulin; 25 μM, positive control)
COc1cc([C@@H]2c3cc4c(cc3C[C@H]3COC(=O)[C@@H]32)OCO4)cc(OC)c1OC [Compound 1, deoxypodophyllotoxin]	> 100	<1.0	98.6 ± 3.1							
COc1cc([C@@H]2c3cc4c(cc3[C@H](O)[C@H]3COC(=O)[C@H]23)OCO4)cc(OC)c1OC [Compound 2a, podophyllotoxin]		>7.4		under the μM level	> 100	0.1	0.7	> 100		
COc1cc([C@@H]2c3cc4c(cc3[C@@H](O)[C@H]3COC(=O)[C@H]23)OCO4)cc(OC)c1OC [Compound 2b, epipodophyllotoxin]					> 100	<0.3	30.6 ± 2.1	> 100		
COc1cc([C@@H]2c3cc4c(cc3C(=O)[C@H]3COC(=O)[C@H]23)OCO4)cc(OC)c1OC [Compound 3, podophyllotoxone]	10.3 ± 0.9	<0.6	60.6 ± 7.7			<0.1				
COC(=O)[C@@H]1C(C=O)=Cc2cc3c(cc2[C@H]1c1cc(OC)c(OC)c(OC)c1)OCO3 [Compound 14, podophyllic aldehyde]		> 10.8			89.5 ± 4.3	>10.8	> 100		> 100	
CCCCCCCCCCCCCCCCOP(=O)([O-])OCC[N+](C)(C)C [Miltefosine, miltefosine, reference compound]		26.9			5.9 ± 1.4	21	50.4 ± 4.3	64.7 ± 7		
CC[C@]1(O)C[C@@H]2CN(CCc3c([nH]c4ccccc34)[C@@](C(=O)OC)(c3cc4c(cc3OC)N(C)[C@H]3[C@@](O)(C(=O)OC)[C@H](OC(C)=O)[C@]5(CC)C=CCN6CC[C@]43[C@@H]65)C2)C1 [Vinblastine, reference compound]										inhibits completely
